Test results taken from patent publication US11007191B2, “Pharmaceutical compositions and dosage forms” (IGNYTA, INC., priority 2017, dated 2021).
≈ marks a conversion by molar mass, not a printed value.

Columns and labels:
[1] = gastric-to-intestinal (GB/IB) two-stage dissolution test; format: physicochemical; conditions: Example 5, GB stage, 75 mL 0.01M HCl, 100 mg nominal dose
Procedure: A two-stage dissolution test was also conducted on all four coating weights to determine if gastric exposure affected performance.
Gastric-to-intestinal (GB-IB) non-sink dissolution test: The formulation having a 50% theoretical coating weight was tested in a GB-IB non-sink dissolution test as described in the table below:

[2] = non-sink dissolution in pH 6.5 PBS with 0.5% SIF, USP Apparatus II; format: physicochemical; conditions: Example 5; 1 mg/mL in PBS pH 6.5 with 0.5% SIF, 37° C., 250 rpm
Procedure: The performance of all four coating weights was evaluated by dissolution in pH 6.5 phosphate buffered saline (PBS) containing 0.5% SIF powder.

TrkC = TrkC (Homo sapiens, UniProt Q16288); conditions: background statement; cited from earlier work
[3] = tested on: various forms of cancer having at least one molecular alteration in one or more of ALK, ROS1, TrkA, TrkB and TrkC; conditions: early clinical studies, patients with alteration in ALK; cited from earlier work
[4] = target: anaplastic lymphoma kinase (ALK) (Homo sapiens, UniProt Q9UM73); conditions: background statement; cited from earlier work
[5] = single-dose food effect study in dogs; format: in vivo, dog; conditions: formulation that did not comprise at least one polymer
Source text: Such food effects can cause difficulty during human testing of drugs as the fed or fasted condition of the patient can cause exposure or bioavailability of drugs to vary widely.

[6] = amorphous solubility in pH 6.5 PBS containing 0.5% SIF; format: physicochemical; conditions: phosphate buffered saline with 0.5% SIF powder, fassif; pH 6.5 PBS containing 0.5% SIF powder; read-out: approximate amorphous solubility
[7] = solubility in solvents for fluid bed coating; format: physicochemical
Procedure: The solutions included 80/20 acetone/water, 95/5 acetone/water, 90/10 acetone/water, methyl ethyl ketone, acetone and methanol at 40° C. […] The lab temperature was monitored and ranged from 17° C. to 25° C., fluctuating with time of day during testing.

TrkB = TrkB (Homo sapiens, UniProt Q16620); conditions: background statement; cited from earlier work
TrkB, sequence (Q16620 32-822): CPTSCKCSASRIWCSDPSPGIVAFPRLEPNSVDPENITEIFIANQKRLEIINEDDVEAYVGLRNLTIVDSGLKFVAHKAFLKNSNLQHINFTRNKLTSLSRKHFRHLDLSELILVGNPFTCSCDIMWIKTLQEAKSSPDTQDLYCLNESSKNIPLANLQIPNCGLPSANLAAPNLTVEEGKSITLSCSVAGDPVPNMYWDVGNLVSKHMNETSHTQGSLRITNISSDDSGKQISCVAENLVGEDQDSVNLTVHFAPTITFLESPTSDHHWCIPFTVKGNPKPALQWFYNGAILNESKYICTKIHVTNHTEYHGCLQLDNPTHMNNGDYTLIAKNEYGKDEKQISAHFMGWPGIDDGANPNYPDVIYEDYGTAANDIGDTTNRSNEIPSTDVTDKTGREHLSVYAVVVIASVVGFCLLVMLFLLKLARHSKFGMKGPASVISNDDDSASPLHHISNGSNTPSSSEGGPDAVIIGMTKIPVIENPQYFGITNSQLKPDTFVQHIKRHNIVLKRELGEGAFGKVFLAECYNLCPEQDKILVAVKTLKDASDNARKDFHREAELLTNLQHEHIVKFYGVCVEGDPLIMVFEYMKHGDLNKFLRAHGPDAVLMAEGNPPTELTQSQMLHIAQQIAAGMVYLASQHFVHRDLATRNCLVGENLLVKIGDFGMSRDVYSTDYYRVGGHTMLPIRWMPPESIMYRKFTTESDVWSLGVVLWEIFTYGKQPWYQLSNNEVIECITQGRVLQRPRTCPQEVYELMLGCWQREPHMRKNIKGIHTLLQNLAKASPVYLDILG

TrkC, sequence (Q16288 32-839): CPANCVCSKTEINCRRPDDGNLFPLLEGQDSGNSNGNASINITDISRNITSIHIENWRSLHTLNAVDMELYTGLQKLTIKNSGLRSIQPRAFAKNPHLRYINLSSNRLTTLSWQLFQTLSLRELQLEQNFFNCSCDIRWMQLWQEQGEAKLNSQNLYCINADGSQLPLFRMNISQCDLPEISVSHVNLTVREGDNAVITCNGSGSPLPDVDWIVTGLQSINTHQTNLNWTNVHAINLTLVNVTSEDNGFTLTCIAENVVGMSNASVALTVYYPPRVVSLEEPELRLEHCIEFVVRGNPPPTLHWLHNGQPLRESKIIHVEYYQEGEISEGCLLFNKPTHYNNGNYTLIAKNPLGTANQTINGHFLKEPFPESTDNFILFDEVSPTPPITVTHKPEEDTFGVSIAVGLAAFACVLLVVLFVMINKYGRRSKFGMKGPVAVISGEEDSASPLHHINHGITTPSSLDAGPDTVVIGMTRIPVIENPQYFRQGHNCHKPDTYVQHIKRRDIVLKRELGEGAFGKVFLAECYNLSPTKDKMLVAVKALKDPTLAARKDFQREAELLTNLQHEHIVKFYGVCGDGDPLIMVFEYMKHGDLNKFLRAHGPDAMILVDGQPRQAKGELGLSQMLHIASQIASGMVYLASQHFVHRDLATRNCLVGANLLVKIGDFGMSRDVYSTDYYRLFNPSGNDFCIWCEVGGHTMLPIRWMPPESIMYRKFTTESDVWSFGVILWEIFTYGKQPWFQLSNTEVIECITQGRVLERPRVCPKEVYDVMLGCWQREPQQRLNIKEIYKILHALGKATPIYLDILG
anaplastic lymphoma kinase (ALK), sequence (Q9UM73 19-1620): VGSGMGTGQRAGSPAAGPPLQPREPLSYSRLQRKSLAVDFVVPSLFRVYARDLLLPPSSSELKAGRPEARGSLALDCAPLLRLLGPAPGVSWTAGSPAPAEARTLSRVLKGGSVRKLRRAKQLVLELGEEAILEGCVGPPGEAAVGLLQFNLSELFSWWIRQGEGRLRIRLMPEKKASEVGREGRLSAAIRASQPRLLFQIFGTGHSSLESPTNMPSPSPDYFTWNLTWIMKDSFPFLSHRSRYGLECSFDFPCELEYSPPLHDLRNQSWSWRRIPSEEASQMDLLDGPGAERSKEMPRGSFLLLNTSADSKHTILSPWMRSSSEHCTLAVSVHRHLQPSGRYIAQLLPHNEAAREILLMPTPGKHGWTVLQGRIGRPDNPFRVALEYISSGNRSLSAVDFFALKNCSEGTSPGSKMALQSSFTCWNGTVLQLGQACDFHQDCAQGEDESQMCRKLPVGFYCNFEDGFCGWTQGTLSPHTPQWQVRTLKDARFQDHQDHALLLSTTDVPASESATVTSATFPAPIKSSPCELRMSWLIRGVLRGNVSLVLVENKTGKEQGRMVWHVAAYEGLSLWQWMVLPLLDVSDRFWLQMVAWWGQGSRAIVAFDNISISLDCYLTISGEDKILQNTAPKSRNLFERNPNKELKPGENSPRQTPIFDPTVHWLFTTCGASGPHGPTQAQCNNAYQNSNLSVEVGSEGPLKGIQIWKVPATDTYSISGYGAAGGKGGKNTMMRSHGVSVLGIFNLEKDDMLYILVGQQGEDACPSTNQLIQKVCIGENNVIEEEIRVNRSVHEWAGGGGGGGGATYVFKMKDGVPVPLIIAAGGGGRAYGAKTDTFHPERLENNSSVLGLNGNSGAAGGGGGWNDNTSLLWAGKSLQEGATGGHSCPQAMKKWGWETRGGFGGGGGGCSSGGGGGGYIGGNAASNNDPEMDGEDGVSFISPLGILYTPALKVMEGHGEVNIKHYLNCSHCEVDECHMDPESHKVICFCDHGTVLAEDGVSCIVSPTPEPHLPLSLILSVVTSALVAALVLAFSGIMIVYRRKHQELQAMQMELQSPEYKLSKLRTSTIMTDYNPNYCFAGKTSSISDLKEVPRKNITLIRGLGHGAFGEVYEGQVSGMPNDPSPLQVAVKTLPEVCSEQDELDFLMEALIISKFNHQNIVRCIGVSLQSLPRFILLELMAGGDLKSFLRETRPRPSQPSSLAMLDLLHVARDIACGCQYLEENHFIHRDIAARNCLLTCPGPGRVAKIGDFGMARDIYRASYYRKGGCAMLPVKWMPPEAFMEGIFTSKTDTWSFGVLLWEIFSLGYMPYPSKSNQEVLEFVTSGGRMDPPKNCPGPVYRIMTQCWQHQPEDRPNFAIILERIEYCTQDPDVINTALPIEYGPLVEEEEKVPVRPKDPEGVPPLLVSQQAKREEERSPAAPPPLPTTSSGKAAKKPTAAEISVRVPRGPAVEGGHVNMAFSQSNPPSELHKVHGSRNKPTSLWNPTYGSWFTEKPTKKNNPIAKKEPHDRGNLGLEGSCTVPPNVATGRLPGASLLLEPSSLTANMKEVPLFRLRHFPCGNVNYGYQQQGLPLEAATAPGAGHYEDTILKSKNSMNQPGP

Row | Structure (SMILES) | dose reached in the pH 2.0 media [1] | dose released within about 75 minutes [2] | inhibition of TrkC (TrkC) | antitumor effects in patients [3] | inhibition of ALK [4] | exposure levels under fed conditions compared to fasting conditions [5] | solubility [6] [µg/mL] | solubility in acetone/water solutions ([7]; 80/20, 95/5, 90/10 acetone/water, for 24 hours, lab temperature 17-25° C.) | time until completely dissolved in acetone/water solutions ([7]; approximately 170 mg per mL of solvent) [min] | inhibition of TrkB (TrkB)
1 | CN1CCN(c2ccc(C(=O)Nc3n[nH]c4ccc(Cc5cc(F)cc(F)c5)cc34)c(NC3CCOCC3)c2)CC1 [API, N-[5-(3,5-difluorobenzyl)-1H-indazol-3-yl]-4-(4-methyl-piperazin-1-yl)-2-(tetrahydro-2H-pyran-4-ylamino)-benzamide] | full dose | about 15% | – | – | – | – | – | – | – | –
2 | CN1CCN(c2ccc(C(=O)Nc3n[nH]c4ccc(Cc5cc(F)cc(F)c5)cc34)c(NC3CCOCC3)c2)CC1 [N-[5-(3,5-difluorobenzyl)-1H-indazol-3-yl]-4-(4-methyl-piperazin-1-yl)-2-(tetrahydro-2H-pyran-4-ylamino)-benzamide] | – | – | potent inhibitor | antitumor effects | potent inhibitor | approximately 2 fold | ~1000 (≈ 1780 µM) | greater than mg/mL | ≤ 30 | potent inhibitor
